From patent US10195255B2, “GLP-1 derivatives and uses thereof” (Novo Nordisk A/S, priority 2013, dated 2019)
Where a SMILES comes first, the peptide text is derived from it. [ ]: non-standard residue; d: D form. The star is where a group is joined. X3 = O=C(O)CCCCCCCCCCCCCCCCCCC(=O)NCC1CCC(C(=O)N[C@@H](CCC(=O)NCCOCCOCC(=O)NCCOCCOCC(=O)NCCCC[C@H](NC(=O)COCCOCCNC(=O)COCCOCCNC(=O)CC[C@H](NC(=O)C2CCC(CNC(=O)CCCCCCCCCCCCCCCCCCC(=O)O)CC2)C(=O)O)C(=O)*)C(=O)O)CC1; X2 = O=C(O)CCCCCCCCCCCCCCCCCCC(=O)N1CCC(C(=O)N[C@@H](CCC(=O)NCCOCCOCC(=O)NCCOCCOCC(=O)NCCCC[C@H](NC(=O)COCCOCCNC(=O)COCCOCCNC(=O)CC[C@H](NC(=O)C2CCN(C(=O)CCCCCCCCCCCCCCCCCCC(=O)O)CC2)C(=O)O)C(=O)*)C(=O)O)CC1; X1 = O=C(O)CCCCCCCCCCCCCCCCCCC(=O)N[C@@H](CCC(=O)NCCOCCOCC(=O)NCCOCCOCC(=O)NCCCC[C@H](NC(=O)COCCOCCNC(=O)COCCOCCNC(=O)CC[C@H](NC(=O)CCCCCCCCCCCCCCCCCCC(=O)O)C(=O)O)C(=O)*)C(=O)O; Aib = CC(C)(N)C(=O)O

Tests used:
[1] = in vivo; details: male, Göttingen, minipig, iv
[2] = Pharmacokinetic study in minipigs (i.v.)

Row | half-life [1] [h] | Compound | also measured
1 | 131 | CC[C@H](C)[C@H](NC(=O)[C@H](Cc1ccccc1)NC(=O)[C@H](CCC(=O)O)NC(=O)[C@H](CCCNC(=N)N)NC(=O)[C@H](C)NC(=O)[C@H](C)NC(=O)[C@H](CCC(N)=O)NC(=O)[C@H](CCC(=O)O)NC(=O)[C@H](CCC(=O)O)NC(=O)[C@H](CC(C)C)NC(=O)[C@H](Cc1ccc(O)cc1)NC(=O)[C@H](CO)NC(=O)[C@H](CO)NC(=O)[C@@H](NC(=O)[C@H](CC(=O)O)NC(=O)[C@H](CO)NC(=O)[C@@H](NC(=O)[C@H](Cc1ccccc1)NC(=O)[C@@H](NC(=O)CNC(=O)[C@H](CCC(=O)O)NC(=O)C(C)(C)NC(=O)[C@@H](N)Cc1c[nH]cn1)[C@@H](C)O)[C@@H](C)O)C(C)C)C(=O)N[C@@H](C)C(=O)N[C@@H](Cc1c[nH]c2ccccc12)C(=O)N[C@@H](CC(C)C)C(=O)N[C@H](C(=O)N[C@@H](CCCNC(=N)N)C(=O)NCC(=O)N[C@@H](CCCNC(=N)N)C(=O)NCC(=O)N[C@@H](CCCCNC(=O)[C@H](CCCCNC(=O)COCCOCCNC(=O)COCCOCCNC(=O)CC[C@H](NC(=O)CCCCCCCCCCCCCCCCCCC(=O)O)C(=O)O)NC(=O)COCCOCCNC(=O)COCCOCCNC(=O)CC[C@H](NC(=O)CCCCCCCCCCCCCCCCCCC(=O)O)C(=O)O)C(=O)O)C(C)C [Example 9, N{Alpha}([Aib8,Glu22,Arg26,Arg34]-GLP-1-(7-37)-peptidyl)-N{Epsilon}[(2S)-2,6-bis[[2-[2-[2-[[2-[2-[2-[[(4S)-4-carboxy-4-(19-carboxynonadecanoylamino)butanoyl]amino]ethoxy]ethoxy]acetyl]amino]ethoxy]ethoxy]acetyl]amino]hexanoyl]Lys] (H-H[Aib]EGTFTSDVSSYLEEQAAREFIAWLVRGRGK(X1)-OH; N-terminus and C-terminus assumed) | 
2 |  | CC[C@H](C)[C@H](NC(=O)[C@H](Cc1ccccc1)NC(=O)[C@H](CCC(=O)O)NC(=O)[C@H](CCCNC(=N)N)NC(=O)[C@H](C)NC(=O)[C@H](C)NC(=O)[C@H](CCC(N)=O)NC(=O)[C@H](CCC(=O)O)NC(=O)[C@H](CCC(=O)O)NC(=O)[C@H](CC(C)C)NC(=O)[C@H](Cc1ccc(O)cc1)NC(=O)[C@H](CO)NC(=O)[C@H](CO)NC(=O)[C@@H](NC(=O)[C@H](CC(=O)O)NC(=O)[C@H](CO)NC(=O)[C@@H](NC(=O)[C@H](Cc1ccccc1)NC(=O)[C@@H](NC(=O)CNC(=O)[C@H](CCC(=O)O)NC(=O)C(C)(C)NC(=O)[C@@H](N)Cc1c[nH]cn1)[C@@H](C)O)[C@@H](C)O)C(C)C)C(=O)N[C@@H](C)C(=O)N[C@@H](Cc1c[nH]c2ccccc12)C(=O)N[C@@H](CC(C)C)C(=O)N[C@H](C(=O)N[C@@H](CCCNC(=N)N)C(=O)NCC(=O)N[C@@H](CCCNC(=N)N)C(=O)NCC(=O)NCC(=O)N[C@@H](CO)C(=O)N[C@@H](CCCCNC(=O)[C@H](CCCCNC(=O)COCCOCCNC(=O)COCCOCCNC(=O)CC[C@H](NC(=O)C1CCC(CNC(=O)CCCCCCCCCCCCCCCCCCC(=O)O)CC1)C(=O)O)NC(=O)COCCOCCNC(=O)COCCOCCNC(=O)CC[C@H](NC(=O)C1CCC(CNC(=O)CCCCCCCCCCCCCCCCCCC(=O)O)CC1)C(=O)O)C(=O)O)C(C)C (stereo partly drawn) [Example 3, [Aib8,Glu22,Arg26,Arg34]-GLP-1-(7-37)-peptidyl-Gly-Ser-N{Epsilon}[(2S)-2,6-bis[[2-[2-[2-[[2-[2-[2-[[(4S)-4-carboxy-4-[[4-[(19-carboxynonadecanoylamino)methyl]cyclohexanecarbonyl]amino]butanoyl]amino]ethoxy]ethoxy]acetyl]amino]ethoxy]ethoxy]acetyl]amino]hexanoyl]Lys] (H-H[Aib]EGTFTSDVSSYLEEQAAREFIAWLVRGRGGSK(X3)-OH) | Terminal half-live ([2]; minipigs, i.v., 2 nmol/kg, harmonic mean): 122 h
3 |  | CC[C@H](C)[C@H](NC(=O)[C@H](Cc1ccccc1)NC(=O)[C@H](CCC(=O)O)NC(=O)[C@H](CCCNC(=N)N)NC(=O)[C@H](C)NC(=O)[C@H](C)NC(=O)[C@H](CCC(N)=O)NC(=O)[C@H](CCC(=O)O)NC(=O)[C@H](CCC(=O)O)NC(=O)[C@H](CC(C)C)NC(=O)[C@H](Cc1ccc(O)cc1)NC(=O)[C@H](CO)NC(=O)[C@H](CO)NC(=O)[C@@H](NC(=O)[C@H](CC(=O)O)NC(=O)[C@H](CO)NC(=O)[C@@H](NC(=O)[C@H](Cc1ccccc1)NC(=O)[C@@H](NC(=O)CNC(=O)[C@H](CCC(=O)O)NC(=O)C(C)(C)NC(=O)[C@@H](N)Cc1c[nH]cn1)[C@@H](C)O)[C@@H](C)O)C(C)C)C(=O)N[C@@H](C)C(=O)N[C@@H](Cc1c[nH]c2ccccc12)C(=O)N[C@@H](CC(C)C)C(=O)N[C@H](C(=O)N[C@@H](CCCNC(=N)N)C(=O)NCC(=O)N[C@@H](CCCNC(=N)N)C(=O)NCC(=O)N[C@@H](CCCCNC(=O)[C@H](CCCCNC(=O)COCCOCCNC(=O)COCCOCCNC(=O)CC[C@H](NC(=O)C1CCN(C(=O)CCCCCCCCCCCCCCCCCCC(=O)O)CC1)C(=O)O)NC(=O)COCCOCCNC(=O)COCCOCCNC(=O)CC[C@H](NC(=O)C1CCN(C(=O)CCCCCCCCCCCCCCCCCCC(=O)O)CC1)C(=O)O)C(=O)O)C(C)C [Example 18, N{Alpha}([Aib8,Glu22,Arg26,Arg34]-GLP-1-(7-37)-peptidyl)-N{Epsilon}[(2S)-2,6-bis[[2-[2-[2-[[2-[2-[2-[[(4S)-4-carboxy-4-[[1-(19-carboxynonadecanoyl)piperidine-4-carbonyl]amino]butanoyl]amino]ethoxy]ethoxy]acetyl]amino]ethoxy]ethoxy]acetyl]amino]hexanoyl]Lys] (H-H[Aib]EGTFTSDVSSYLEEQAAREFIAWLVRGRGK(X2)-OH) | half-life ([2]; male, Göttingen, minipig, plasma, iv, 15 nmol/kg): 140 h
4 | 128 | CC[C@H](C)[C@H](NC(=O)[C@H](Cc1ccccc1)NC(=O)[C@H](CCC(=O)O)NC(=O)[C@H](CCCNC(=N)N)NC(=O)[C@H](C)NC(=O)[C@H](C)NC(=O)[C@H](CCC(N)=O)NC(=O)[C@H](CCC(=O)O)NC(=O)[C@H](CCC(=O)O)NC(=O)[C@H](CC(C)C)NC(=O)[C@H](Cc1ccc(O)cc1)NC(=O)[C@H](CO)NC(=O)[C@H](CO)NC(=O)[C@@H](NC(=O)[C@H](CC(=O)O)NC(=O)[C@H](CO)NC(=O)[C@@H](NC(=O)[C@H](Cc1ccccc1)NC(=O)[C@@H](NC(=O)CNC(=O)[C@H](CCC(=O)O)NC(=O)C(C)(C)NC(=O)[C@@H](N)Cc1c[nH]cn1)[C@@H](C)O)[C@@H](C)O)C(C)C)C(=O)N[C@@H](C)C(=O)N[C@@H](Cc1c[nH]c2ccccc12)C(=O)N[C@@H](CC(C)C)C(=O)N[C@H](C(=O)N[C@@H](CCCNC(=N)N)C(=O)NCC(=O)N[C@@H](CCCNC(=N)N)C(=O)N[C@@H](CCCCNC(=O)[C@H](CCCCNC(=O)COCCOCCNC(=O)COCCOCCNC(=O)CC[C@H](NC(=O)CCCCCCCCCCCCCCCCCCC(=O)O)C(=O)O)NC(=O)COCCOCCNC(=O)COCCOCCNC(=O)CC[C@H](NC(=O)CCCCCCCCCCCCCCCCCCC(=O)O)C(=O)O)C(=O)O)C(C)C [Example 6, N{Epsilon-37}-[(2S)-2,6-bis[[2-[2-[2-[[2-[2-[2-[[(4S)-4-carboxy-4-(19-carboxynonadecanoylamino)butanoyl]amino]ethoxy]ethoxy]acetyl]amino]ethoxy]ethoxy]acetyl]amino]hexanoyl]-[Aib8,Glu22,Arg26,Arg34,Lys37]-GLP-1-(7-37)-peptide] | 
